Data published in paper PMC3005981 (Basic & clinical pharmacology & toxicology, 2010).

Key:
[1] = test system: CYP2C18; experiment: Methadone metabolism in cDNA-expressed CYP Supersomes, with abundance scaling; conditions: Abundance from Immunquantitation
[2] = test system: CYP2C8; experiment: as above
[3] = test system: CYP2A6; experiment: as above
[4] = test system: CYP1A2; experiment: as above
[5] = test system: CYP2B6; experiment: as above
[6] = test system: CYP2C9*1; experiment: as above
[7] = test system: CYP3A4; experiment: as above
[8] = test system: CYP3A (testosterone 6β-hydroxylation); experiment: Correlation of EDDP formation with CYP-specific activity in 15 phenotyped HLMs; conditions: 15 HLMs; 750 ng/ml methadone, 0.5 mg/ml protein, 30 min; p<0.05
[9] = test system: CYP2D6*1; experiment: Methadone metabolism in cDNA-expressed CYP Supersomes, with abundance scaling
[10] = test system: CYP2C19; experiment: as above
[11] = most incubates; limit of detection approximately 1.0 ng/ml
[12] = test system: CYP3A4/5; experiment: in vitro; conditions: human, microsomes, HLM
[13] = biological target: CYP3A4 (Homo sapiens, UniProt P08684); experiment: in vitro; conditions: recombinant enzyme, Supersome
[14] = test system: CYP2D6; experiment: Inhibition of methadone N-demethylation; conditions: human, microsomes, Inhibition of (R)- and (S)-EDDP formation, HLM with high CYP2D6 activity
[15] = biological target: CYP2D6 (Homo sapiens, UniProt P10635); experiment: in vitro; conditions: recombinant enzyme
[16] = Abundance from Immunquantitation
[17] = Abundance from Relative Activity Factor
[18] = % Inhibition of (R)-EDDP production
[19] = % Inhibition of (S)-EDDP production

CYP3A4 (Homo sapiens, UniProt P08684), sequence (P08684 whole entry): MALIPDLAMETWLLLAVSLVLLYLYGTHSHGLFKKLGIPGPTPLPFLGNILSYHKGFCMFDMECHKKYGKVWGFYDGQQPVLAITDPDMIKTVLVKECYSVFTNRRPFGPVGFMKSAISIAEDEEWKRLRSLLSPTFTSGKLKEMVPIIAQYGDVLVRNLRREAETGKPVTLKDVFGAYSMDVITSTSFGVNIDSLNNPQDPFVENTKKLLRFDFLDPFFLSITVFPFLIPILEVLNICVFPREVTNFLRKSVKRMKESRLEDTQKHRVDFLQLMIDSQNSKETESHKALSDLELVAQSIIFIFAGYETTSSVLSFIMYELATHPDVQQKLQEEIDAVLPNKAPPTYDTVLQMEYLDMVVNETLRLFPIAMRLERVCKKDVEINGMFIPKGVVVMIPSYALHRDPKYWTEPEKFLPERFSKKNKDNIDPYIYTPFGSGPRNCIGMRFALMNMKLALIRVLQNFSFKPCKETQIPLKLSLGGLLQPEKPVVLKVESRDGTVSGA
CYP2D6 (Homo sapiens, UniProt P10635), sequence (P10635 whole entry): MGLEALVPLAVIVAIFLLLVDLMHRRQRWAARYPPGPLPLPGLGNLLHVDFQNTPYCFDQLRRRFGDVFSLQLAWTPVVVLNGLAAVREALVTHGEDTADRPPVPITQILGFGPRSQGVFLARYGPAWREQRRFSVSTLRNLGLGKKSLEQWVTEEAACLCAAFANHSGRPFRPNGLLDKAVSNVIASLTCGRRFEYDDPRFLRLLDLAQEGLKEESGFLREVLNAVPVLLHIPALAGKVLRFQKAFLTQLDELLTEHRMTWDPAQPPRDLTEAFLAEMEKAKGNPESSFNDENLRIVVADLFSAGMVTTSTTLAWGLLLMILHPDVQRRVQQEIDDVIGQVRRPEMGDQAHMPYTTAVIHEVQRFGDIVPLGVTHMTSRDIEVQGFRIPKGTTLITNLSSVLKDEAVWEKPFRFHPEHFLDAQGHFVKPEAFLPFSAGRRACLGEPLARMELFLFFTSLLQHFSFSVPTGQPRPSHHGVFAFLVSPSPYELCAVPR

With CC=C1N(C)[C@H](C)CC1(c1ccccc1)c1ccccc1 [(R)-EDDP] the “Scaled contribution of CYP to formation of R- and S-EDDP” value (“Scaled contribution of CYP” for short) [1] was 0.7%, the “Scaled contribution of CYP” value [2, 16] was 0.4% and the “Scaled contribution of CYP” value [2, 17] was 0.9%. The “Scaled contribution of CYP” value [3, 16] was 0.0%, the “Scaled contribution of CYP” value [3, 17] was 0.0% and the “Scaled contribution of CYP” value [4, 16] was 0.0%. The “Scaled contribution of CYP” value [4, 17] was 0.0%, the “Scaled contribution of CYP” value [5, 16] was 11.5% and the “Scaled contribution of CYP” value [5, 17] was 17.8%. The “Scaled contribution of CYP” value [6, 16] was 1.2%, the “Scaled contribution of CYP” value [6, 17] was 3.7% and the “Scaled contribution of CYP” value [7, 16] was 70.7%. The “Scaled contribution of CYP” value [7, 17] was 71.3%, the “Correlation (r) of EDDP formation with testosterone 6β-hydroxylation catalyzed by CYP3A” value [8] was 0.82 and the “Scaled contribution of CYP” value [9, 16] was 1.0%. The “Scaled contribution of CYP” value [9, 17] was 0.5%, the “Scaled contribution of CYP” value [10, 16] was 14.4% and the “Scaled contribution of CYP” value [10, 17] was 5.8%.
With CC=C1N(C)[C@@H](C)CC1(c1ccccc1)c1ccccc1 [(S)-EDDP] the “Scaled contribution of CYP” value [1] was 0.9%, the “Scaled contribution of CYP” value [2, 16] was 0.2% and the “Scaled contribution of CYP” value [2, 17] was 0.4%. The “Scaled contribution of CYP” value [3, 16] was 0.0%, the “Scaled contribution of CYP” value [3, 17] was 0.0% and the “Scaled contribution of CYP” value [4, 16] was 0.0%. The “Scaled contribution of CYP” value [4, 17] was 0.0%, the “Scaled contribution of CYP” value [5, 16] was 18.5% and the “Scaled contribution of CYP” value [5, 17] was 26.7%. The “Scaled contribution of CYP” value [6, 16] was 0.4%, the “Scaled contribution of CYP” value [6, 17] was 1.1% and the “Scaled contribution of CYP” value [7, 16] was 74.3%. The “Scaled contribution of CYP” value [7, 17] was 69.6%, the “Correlation (r) of EDDP formation with testosterone 6β-hydroxylation catalyzed by CYP3A” value [8] was 0.54 and the “Scaled contribution of CYP” value [9, 16] was 1.3%. For the same compound, the “Scaled contribution of CYP” value [9, 17] was 0.6%, the “Scaled contribution of CYP” value [10, 16] was 4.4% and the “Scaled contribution of CYP” value [10, 17] was 1.6%.
With CCC1=NC(C)CC1(c1ccccc1)c1ccccc1 (stereo not drawn) [EMDP, 2-ethyl-5-methyl-3,3-diphenylpyraline] the “EMDP production from methadone” value [11] was “no EMDP production was noted”.
For NNC(=O)c1ccncc1 [Isoniazid, isoniazid], the inhibition at 15 min, 500 µM [12, 18] was 70.8%, the inhibition at 15 min, 500 µM [12, 19] was 51.4% and the inhibition at 15 min, 500 µM [13, 18] was 96.9%. It also gave an inhibition at 15 min, 500 µM [13, 19] of 96.9%.
For Fc1ccc([C@@H]2CCNC[C@H]2COc2ccc3c(c2)OCO3)cc1 [Paroxetine, paroxetine], the inhibition at 30 min, 1 µM ([14]; 1 µM) was less than 30%, the inhibition at 30 min, 1 µM ([15]; % Inhibition of (R)-EDDP production, Supersome) was 9.9% and the inhibition at 30 min, 1 µM ([15]; % Inhibition of (S)-EDDP production, Supersome) was 7.6%. For the same compound, the inhibition at 30 min, 1 µM ([15]; Inhibition of Supersome 2D6 activity) was less than 30%.
With C=C[C@H]1C[N@@]2CC[C@H]1C[C@@H]2[C@@H](O)c1ccnc2ccc(OC)cc12 [Quinidine, quinidine] the inhibition at 30 min, 10 µM ([14]; 10 µM) was less than 30%.
For O=C(c1ccc(OCCN2CCCCC2)cc1)c1c(-c2ccc(O)cc2)sc2cc(O)ccc12 [Raloxifene, raloxifene], the inhibition at 15 min, 30 µM [13, 18] was 96.8% and the inhibition at 15 min, 30 µM [13, 19] was 97.2%.
